{
  "source": "paper PMC5522996",
  "about": "“Big conductance calcium‐activated potassium channel openers control spasticity without sedation” (British Journal of Pharmacology, 2017)",
  "key": {"[1]": {"experiment": "Plasma levels in toxicological studies, dogs", "format": "in vivo", "details": "both sexes, Beagle, dog, po, 30 min following 50 mg·kg^−1 p.o., read-out: VSN16R detected in plasma", "protocol": "Twenty‐eight day toxicology in rats and dogs for Investigational New Drug filing was performed by Charles Rivers (UK). Reproductive toxicology in rabbits was performed by Charles Rivers (Canada). Pharmacokinetic and/or toxicological doses ranged from 5 to 1000 mg·kg^−1 p.o. in Sprague Dawley male and female rats (n = 6‐26 per group), 50–200 mg·kg^−1 p.o. in male and female Beagle dogs (n = 6 per group) and 100–750 mg·kg^−1 p.o. in female New Zealand white rabbits (n = 9 per group). Results are expressed as mean ± SD.\nThe stability of compounds when subjected to hepatic and plasma degradation was assessed in vitro by Inpharmatica, Cambridge, UK. […] Samples were centrifuged, and the resultant supernatant analysed for parent compound. The mass responses at baseline were taken as the 100% reference values against which the disappearance of the compound was measured. […] Half‐life values were calculated from the slope of these plots. Hepatocyte metabolism was assessed by Cyprotex, Macclesfield, and 10 μM VSN16R was incubated with primary mouse, rat, monkey (Macaque) and human hepatocytes for 1 h, and the presence of metabolites was assessed using liquid […] mass spectroscopy. The stability of VSN16R was assessed in vivo by Inpharmatica, Cyprotex and Charles Rivers, Cambridge. […] Data are expressed as mean ± SEM. […]"}, "healthy volunteers": {"tested_on": "healthy volunteers", "experiment": "Phase I safety study, adverse events", "format": "in vivo, human"}, "Water solubility": {"experiment": "Water solubility", "format": "physicochemical"}, "mouse Gpr55": {"target": "T1, mouse Gpr55 (Mus musculus, UniProt Q3UJF0)", "T1 construct": "expressed in transfected cells; host or cells: DBT cells", "T1 sequence (Q3UJF0 whole entry)": "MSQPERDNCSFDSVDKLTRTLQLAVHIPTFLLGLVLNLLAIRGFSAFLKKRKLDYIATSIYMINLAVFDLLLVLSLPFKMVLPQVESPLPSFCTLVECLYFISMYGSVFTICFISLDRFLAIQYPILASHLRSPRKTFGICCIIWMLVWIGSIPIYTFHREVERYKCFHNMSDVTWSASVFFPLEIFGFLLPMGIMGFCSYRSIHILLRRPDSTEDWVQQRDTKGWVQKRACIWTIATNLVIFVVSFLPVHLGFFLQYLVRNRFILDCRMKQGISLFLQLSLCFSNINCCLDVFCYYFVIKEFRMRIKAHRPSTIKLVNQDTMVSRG", "experiment": "Nuclear CREB expression, DBT cells transfected with mouse Gpr55", "format": "cell-based", "details": "10 μM"}, "WP2uvvA": {"tested_on": "WP2uvvA", "experiment": "Bacterial reverse mutation, revertants per plate", "format": "cell-based, Escherichia coli", "protocol": "Strain of Organism Treatment Dose Revertants per plate\nFirst Mutation without Metabolic Stimulation\nSecond Mutation without Metabolic Stimulation\nVSN16R was incubated at various concentrations with either TA1535, TA1537, TA98 and TA100 strains of Salmonella typhimurium, which carry mutations in genes involved in histidine synthesis, and WP2uvvA Escherichia coli. The bacteria are spread on agar plates with limiting histidine content and incubated for 48 h. The number of histidine gene negative to positive revertants was assessed in two experiments. The results represent the mean ± SD. n=3/group. This was performed by Charles"}, "A3": {"target": "T2, A3 (Homo sapiens, UniProt P0DMS8)", "T2 construct": "purchased Cerep; Chantest; DiscoveRx; Multispan; MDS Pharma Services", "T2 sequence (P0DMS8 whole entry)": "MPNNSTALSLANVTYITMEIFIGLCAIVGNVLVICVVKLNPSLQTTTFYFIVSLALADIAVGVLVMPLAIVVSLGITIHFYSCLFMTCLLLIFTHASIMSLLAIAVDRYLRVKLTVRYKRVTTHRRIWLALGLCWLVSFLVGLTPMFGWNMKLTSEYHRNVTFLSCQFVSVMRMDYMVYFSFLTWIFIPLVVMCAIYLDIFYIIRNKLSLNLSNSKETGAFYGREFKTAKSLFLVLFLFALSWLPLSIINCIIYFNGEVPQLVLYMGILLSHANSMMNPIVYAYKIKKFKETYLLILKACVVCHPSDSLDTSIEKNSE", "experiment": "Receptor binding profile of VSN16R", "details": "10µM VSN16R"}, "α1(non-selective)": {"tested_on": "α1(non-selective)", "experiment": "Receptor binding profile of VSN16R", "parameters": "species or system human", "details": "10µM VSN16R"}, "ETA": {"target": "T3, ETA (Homo sapiens, UniProt P25101)", "T3 construct": "purchased Cerep; Chantest; DiscoveRx; Multispan; MDS Pharma Services", "T3 sequence (P25101 21-427)": "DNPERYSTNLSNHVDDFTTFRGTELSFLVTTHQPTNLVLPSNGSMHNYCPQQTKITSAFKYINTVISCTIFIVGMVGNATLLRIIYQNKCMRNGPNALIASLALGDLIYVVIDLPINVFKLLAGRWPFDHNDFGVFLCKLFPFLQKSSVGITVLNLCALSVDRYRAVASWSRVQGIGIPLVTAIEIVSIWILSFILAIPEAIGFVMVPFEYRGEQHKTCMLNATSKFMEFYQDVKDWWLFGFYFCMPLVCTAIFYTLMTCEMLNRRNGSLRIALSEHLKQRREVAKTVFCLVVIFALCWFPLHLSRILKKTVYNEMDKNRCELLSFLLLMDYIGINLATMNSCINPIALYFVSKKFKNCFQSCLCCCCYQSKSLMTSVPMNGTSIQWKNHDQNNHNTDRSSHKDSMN", "experiment": "Receptor binding profile of VSN16R", "details": "10µM VSN16R"}, "H1": {"target": "T4, H1 (Homo sapiens, UniProt P35367)", "T4 construct": "purchased Cerep; Chantest; DiscoveRx; Multispan; MDS Pharma Services", "T4 sequence (P35367 whole entry)": "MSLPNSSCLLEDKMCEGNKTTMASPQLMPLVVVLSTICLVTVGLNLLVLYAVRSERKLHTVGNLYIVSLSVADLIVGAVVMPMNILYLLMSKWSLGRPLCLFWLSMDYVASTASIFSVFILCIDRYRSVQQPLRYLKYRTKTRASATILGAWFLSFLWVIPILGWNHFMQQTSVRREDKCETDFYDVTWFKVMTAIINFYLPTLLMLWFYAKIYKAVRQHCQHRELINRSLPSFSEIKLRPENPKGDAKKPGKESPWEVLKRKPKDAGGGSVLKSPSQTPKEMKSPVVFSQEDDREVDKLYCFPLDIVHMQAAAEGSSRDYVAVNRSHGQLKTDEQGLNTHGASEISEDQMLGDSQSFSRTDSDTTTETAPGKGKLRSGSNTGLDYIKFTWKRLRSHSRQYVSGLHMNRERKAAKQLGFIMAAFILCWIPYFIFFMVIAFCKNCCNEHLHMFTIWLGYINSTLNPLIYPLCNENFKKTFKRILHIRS", "experiment": "Receptor binding profile of VSN16R", "details": "10µM VSN16R"}, "Y2": {"target": "T5, Y2 (Homo sapiens, UniProt P49146)", "T5 construct": "purchased Cerep; Chantest; DiscoveRx; Multispan; MDS Pharma Services", "T5 sequence (P49146 whole entry)": "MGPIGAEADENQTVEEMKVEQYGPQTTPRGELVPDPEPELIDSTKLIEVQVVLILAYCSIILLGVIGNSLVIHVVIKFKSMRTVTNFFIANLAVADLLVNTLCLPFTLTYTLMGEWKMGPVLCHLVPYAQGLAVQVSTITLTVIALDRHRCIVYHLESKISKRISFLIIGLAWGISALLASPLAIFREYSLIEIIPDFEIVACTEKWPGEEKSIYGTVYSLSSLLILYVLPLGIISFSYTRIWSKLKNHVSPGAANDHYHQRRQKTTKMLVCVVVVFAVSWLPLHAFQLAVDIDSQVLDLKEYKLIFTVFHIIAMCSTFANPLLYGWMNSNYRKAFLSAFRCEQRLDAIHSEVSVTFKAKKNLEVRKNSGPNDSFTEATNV", "experiment": "Receptor binding profile of VSN16R", "details": "10µM VSN16R"}, "[2]": {"tested_on": "Ca2+ channel (L verapamil site)", "experiment": "Receptor binding profile of VSN16R", "parameters": "species or system human", "details": "10µM VSN16R"}, "Na+ channel (site 2)": {"tested_on": "Na+ channel (site 2)", "experiment": "Receptor binding profile of VSN16R", "parameters": "species or system human", "details": "10µM VSN16R"}, "Cl- channel": {"tested_on": "Cl- channel", "experiment": "Receptor binding profile of VSN16R", "parameters": "species or system human", "details": "10µM VSN16R"}, "CYP450 2B6": {"target": "CYP450 2B6 (Homo sapiens, UniProt P20813)", "sequence (P20813 whole entry)": "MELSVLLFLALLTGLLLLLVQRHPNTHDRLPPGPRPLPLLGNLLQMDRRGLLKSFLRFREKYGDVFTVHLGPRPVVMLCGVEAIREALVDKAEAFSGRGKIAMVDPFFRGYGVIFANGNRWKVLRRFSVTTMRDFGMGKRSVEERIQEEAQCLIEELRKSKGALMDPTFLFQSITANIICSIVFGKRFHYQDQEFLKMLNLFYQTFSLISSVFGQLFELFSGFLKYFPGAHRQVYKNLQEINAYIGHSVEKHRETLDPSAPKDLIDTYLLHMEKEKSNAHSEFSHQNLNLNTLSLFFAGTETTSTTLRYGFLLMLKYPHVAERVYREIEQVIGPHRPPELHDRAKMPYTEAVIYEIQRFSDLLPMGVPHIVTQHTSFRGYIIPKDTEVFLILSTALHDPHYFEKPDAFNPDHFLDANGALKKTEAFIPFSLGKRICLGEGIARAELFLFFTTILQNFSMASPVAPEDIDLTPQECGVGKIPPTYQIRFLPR", "text": "IC50 Inhibition of substrate binding\nInhibition of binding of either 3-cyano-7-ethoxycoumarin, dibenzylfluorescein or 7-benzyoxy-4-\n(trifluoromethyl) coumarin in human enzyme transfected BTI NN-5B1-4 cells or Sf9 insect cells or\ninhibition of dextromethorphan substrate to CYP450 2D6 in liver microsomes."}, "CYP450 3A7": {"target": "CYP450 3A7 (Homo sapiens, UniProt P24462)", "sequence (P24462 whole entry)": "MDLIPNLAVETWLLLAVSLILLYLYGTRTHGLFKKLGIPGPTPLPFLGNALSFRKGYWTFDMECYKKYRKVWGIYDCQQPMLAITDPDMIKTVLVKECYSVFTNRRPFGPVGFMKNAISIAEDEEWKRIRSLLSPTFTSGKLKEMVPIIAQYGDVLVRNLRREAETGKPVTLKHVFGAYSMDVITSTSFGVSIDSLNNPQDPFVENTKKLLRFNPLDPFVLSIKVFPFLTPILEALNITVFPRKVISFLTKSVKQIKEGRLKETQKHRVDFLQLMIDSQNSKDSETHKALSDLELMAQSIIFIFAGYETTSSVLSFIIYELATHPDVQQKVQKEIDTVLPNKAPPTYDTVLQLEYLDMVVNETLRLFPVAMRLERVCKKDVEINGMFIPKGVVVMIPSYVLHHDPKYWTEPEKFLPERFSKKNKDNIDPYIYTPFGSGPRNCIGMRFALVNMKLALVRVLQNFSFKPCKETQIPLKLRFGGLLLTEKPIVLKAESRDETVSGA"}, "mice": {"tested_on": "mice", "experiment": "Visible sedation, behaviour and tolerability in mice"}, "[3]": {"details": "1 g·kg^−1 p.o. daily for 5 days"}},
  "data": [
    {"smiles": "C[C@H](CO)NC(=O)c1cccc(/C=C\\CCCC(=O)N(C)C)c1", "note": "[VSN16R]", "values": [
      {"measurement": "concentration at 30 min", "setting": "[1]", "value": 82, "unit": "µM"},
      {"measurement": "Vomiting or issues of taste", "setting": "healthy volunteers; encapsulated drug, human studies", "value": "no vomiting or issues of taste were reported"},
      {"measurement": "Sedation in humans", "setting": "healthy volunteers; in vivo", "value": "does not induce sedation"},
      {"measurement": "Serious adverse events", "setting": "healthy volunteers; multiple ascending dose b.i.d.", "value": "no serious adverse events"},
      {"measurement": "Subjects with a possible side effect of the treatment", "setting": "healthy volunteers; multiple ascending dose b.i.d., 3/18 subjects", "value": 16.7, "unit": "%"},
      {"measurement": "Subjects reporting adverse events", "setting": "healthy volunteers; multiple ascending dose b.i.d., 6/18 subjects", "value": 33.3, "unit": "%"},
      {"measurement": "Serious adverse drug‐related events", "setting": "healthy volunteers; single ascending dose", "value": "No serious adverse drug‐related events occurred"},
      {"measurement": "Adverse events reported", "setting": "healthy volunteers; single ascending dose 25–800 mg", "value": 14.3, "unit": "%"},
      {"measurement": "Subjects with a possible associated effect with treatment", "setting": "healthy volunteers; single ascending dose, 5/42 subjects", "value": 11.9, "unit": "%"},
      {"measurement": "solubility", "setting": "Water solubility", "value": "> 30", "unit": "mg/mL"},
      {"measurement": "Activity on DBT cells transfected with mouse Gpr55", "setting": "mouse Gpr55", "value": "Lack of activity"},
      {"measurement": "Revertants per plate", "setting": "WP2uvvA; First Mutation without Metabolic Stimulation, 17µg", "value": "5.3 ± 0.6"},
      {"measurement": "Revertants per plate", "setting": "WP2uvvA; First Mutation without Metabolic Stimulation, 5000µg", "value": "1.3 ± 1.2"},
      {"measurement": "Revertants per plate", "setting": "WP2uvvA; Second Mutation without Metabolic Stimulation, 17µg", "value": "10.3 ± 6.7"},
      {"measurement": "Revertants per plate", "setting": "WP2uvvA; Second Mutation without Metabolic Stimulation, 5000µg", "value": "8.0 ± 4.6"},
      {"measurement": "Activity", "setting": "A3", "value": "Negligible Activity"},
      {"measurement": "Activity", "setting": "α1(non-selective)", "value": "Negligible Activity"},
      {"measurement": "Activity", "setting": "ETA", "value": "Negligible Activity"},
      {"measurement": "Activity", "setting": "H1", "value": "Negligible Activity"},
      {"measurement": "Activity", "setting": "Y2", "value": "Negligible Activity"},
      {"measurement": "Activity", "setting": "[2]", "value": "Negligible Activity"},
      {"measurement": "Activity", "setting": "Na+ channel (site 2)", "value": "Negligible Activity"},
      {"measurement": "Activity", "setting": "Cl- channel", "value": "Negligible Activity"},
      {"measurement": "IC50", "setting": "CYP450 2B6", "value": "> 10", "unit": "µM"},
      {"measurement": "IC50", "setting": "CYP450 3A7", "value": "> 10", "unit": "µM"},
      {"measurement": "Overt behavioural effects or toxicity", "setting": "mice; [3]", "value": "failed to show any overt behavioural effects or toxicity"},
      {"measurement": "Weight loss", "setting": "mice; [3]", "value": "no drug‐induced weight loss"},
      {"measurement": "Tolerated dose", "setting": "mice; p.o., mice", "value": 1000, "unit": "mg/kg"},
      {"measurement": "Visible evidence of sedation", "setting": "mice; up to 30 mg·kg^−1 i.v. in PBS", "value": "failed to show any visible evidence of sedation"}
    ]}
  ]
}
